The numbers were not newly measured in patent US12686665B2, “Bicyclic fused ring derivative or salt thereof and pharmaceutical composition comprising same” (YUHAN CORPORATION, priority 2021, dated 2026), which cites them from elsewhere.

Data set [1] deals with liver and cardiacfibrosis. The conditions noted are these: in vivo; cited from earlier work.
Data set [2] deals with UUO animal model causing kidney disease. Conditions: cited from earlier work.
The test system of data set [3] is NASH patients with advanced liver fibrosis and liver cirrhosis. Conditions: after 4 years of the treatment; cited from earlier work.

In the case of `N#CCCN` [β-Aminopropionitrile], in data set [1], the “liver and cardiac fibrosis” value is “improve liver and cardiacfibrosis”.

`NC/C=C(\F)CS(=O)(=O)c1cccc2cccnc12` [PXS-5505]: in data set [2], the renal fibrosis result was “significantly reduced renal fibrosis”.

B1: Simtuzumab: a monoclonal antibody against LOXL2 (antibody, chains of the INN, looked up, V domains shown)
VH: QVQLVQSGAEVKKPGASVKVSCKASGYAFTYYLIEWVRQAPGQGLEWIGVINPGSGGTNYNEKFKGRATITADKSTSTAYMELSSLRSEDTAVYFCARNWMNFDYWGQGTTVTVSS
VL: DIVMTQTPLSLSVTPGQPASISCRSSKSLLHSNGNTYLYWFLQKPGQSPQFLIYRMSNLASGVPDRFSGSGSGTDFTLKISRVEAEDVGVYYCMQHLEYPYTFGGGTKVEIK
Take B1: the histological efficacy entry in data set [3] was “failure to prove histological efficacy”.
